Data: article PMC9133015 (Nature Communications, 2022)
Several values for one entry are separate records, joined by “and”; a condition that tells them apart may be missing. Equal entries are not always repeated.

Columns and labels:
PC-3 xenograft = experiment: In vivo antitumor activity, PC-3 xenograft mouse model; design: species or system BALB/c nude mice; conditions: for body weight (Figure S10b): 100 mg/kg (block headed at r39); for tumor volume (Figure S10a): 100 mg/kg, in mm³ (unit assumed); for tumor weight (Figure S10c): individual mice
DU145 cells [1] = experiment: Colony formation assay; format: cell-based, human; conditions: replicates
22Rv1 cells [2] = experiment: Colony formation assay; format: cell-based, human; conditions: replicates
DU145 cells [3] = experiment: Cell cycle assay (PI flow cytometry); format: cell-based, human; conditions: for Cell cycle percentages ( % ) G0/G1 / Cell cycle percentages ( % ) G2/M / Cell cycle percentages ( % ) S: replicates
PC-3 cells = experiment: Cell cycle assay (PI flow cytometry); format: cell-based, human; conditions: for Cell cycle percentages ( % ) G0/G1 / Cell cycle percentages ( % ) G2/M / Cell cycle percentages ( % ) S: PC-3, replicates
22Rv1 cells [4] = experiment: Cell cycle assay (PI flow cytometry); format: cell-based, human; conditions: for Cell cycle percentages ( % ) G0/G1 / Cell cycle percentages ( % ) G2/M / Cell cycle percentages ( % ) S: replicates
RWPE-1 cells = experiment: Anti-proliferation activity assay (CCK8, 72 h); format: cell-based; conditions: for Relative proliferation rate (%) mean / Relative proliferation rate (%) / optical density: RWPE1; for Relative proliferation rate (%) / optical density: replicates

SMILES: CCN1CCN(C(=O)c2ccc(Nc3ncc(F)c(-c4ccc5nc(N(C)C)sc5c4)n3)nc2)CC1 [YK-2-69]
- body weight (Figure S10b) (PC-3 xenograft; day 17, individual mice): 21.5 (2×) and 20.9 and 21.7 and 20.7 and 20.5 and 22.6 and 23.4
- body weight (Figure S10b) (PC-3 xenograft; day 19, individual mice): 21.6 and 21.3 and 22.1 and 21.8 and 20.9 (2×) and 22.9 and 23.6
- body weight (Figure S10b) (PC-3 xenograft; day 21, individual mice, in g (unit assumed)): 21.9 and 21.7 and 22.5 and 22 and 21.1 and 20.9 and 23.3 and 24.1
- body weight (Figure S10b) (PC-3 xenograft; day 23, individual mice, in g (unit assumed)): 22.2 and 21.9 and 22.8 and 22.5 and 21.6 and 21.2 and 23.7 and 24.4
- body weight (Figure S10b) (PC-3 xenograft; day 25, individual mice, in g (unit assumed)): 22.4 and 22.2 and 23 and 22.9
- tumor volume (Figure S10a) (PC-3 xenograft; day 1, individual mice): 77.4864 and 92.5301 and 97.1283 and 101.268 and 98.0398 and 97.468 and 73.886 and 80.3144
- tumor volume (Figure S10a) (PC-3 xenograft; day 3, individual mice): 115.765 and 144.425 and 170.933 and 124.316 and 162.987 and 146.332 and 130.957 and 150.238
- tumor volume (Figure S10a) (PC-3 xenograft; day 5, individual mice): 154.192 and 209.47 and 269.793 and 167.67 and 219.907 and 205.492 and 169.178 and 227.654
- tumor volume (Figure S10a) (PC-3 xenograft; day 7, individual mice): 219.658 and 275.568 and 365.875 and 209.513 and 299.159 and 296.64 and 231.386 and 330.578
- tumor volume (Figure S10a) (PC-3 xenograft; day 9, individual mice): 329.162 and 379.473 and 478.428 and 304.962 and 429.596 and 486.382 and 340.579 and 484.285
- tumor volume (Figure S10a) (PC-3 xenograft; day 11, individual mice): 425.31 and 450.313 and 557.222 and 355.841 and 497.266 and 558.451 and 389.654 and 598.443
- tumor volume (Figure S10a) (PC-3 xenograft; day 13, individual mice): 470.277 and 505.24 and 614.643 and 398.947 and 552.456 and 554.825 and 438.407 and 647.336
- tumor volume (Figure S10a) (PC-3 xenograft; day 15, individual mice): 505.825 and 567.155 and 666.998 and 434.631 and 595.348 and 608.437 and 469.076 and 655.028
- tumor volume (Figure S10a) (PC-3 xenograft; day 17, individual mice): 566.789 and 632.783 and 710.893 and 478.638 and 663.313 and 687.885 and 541.191 and 725.155
- tumor volume (Figure S10a) (PC-3 xenograft; day 19, individual mice): 626.915 and 695.75 and 762.842 and 529.26 and 724.582 and 714.002 and 593.545 and 775.769
- tumor volume (Figure S10a) (PC-3 xenograft; day 21, individual mice): 664.022 and 757.202 and 792.305 and 567.096 and 783.549 and 751.035 and 675.845 and 837.844
- tumor volume (Figure S10a) (PC-3 xenograft; day 23, individual mice): 712.611 and 799.725 and 853.619 and 600.587 and 832.37 and 731.016 and 739.798 and 963.73
- tumor volume (Figure S10a) (PC-3 xenograft; day 25, individual mice): 761.381 and 859.669 and 897.54 and 641.932
- tumor weight (Figure S10c) (PC-3 xenograft; High dose, in g (unit assumed)): 0.61 and 0.52 and 0.5 and 0.55 and 0.62 and 0.53 and 0.74 and 0.7
- tumor weight (Figure S10c) (PC-3 xenograft; Low dose, in g (unit assumed)): 0.79 and 0.89 and 1.1 and 0.91 and 0.71 and 0.92 and 0.81 and 0.88
- tumor growth (in words) (PC-3 xenograft; PC-3 xenograft, 100 or 200 mg/kg orally every day): significantly inhibited tumor growth
- tumor volume (in words) (PC-3 xenograft; PC-3 xenograft, high dose (200 mg/kg)): decrease tumor volume
- Colony formation (cell number) (DU145 cells [1]; DU145, 2 μM): 70 cell number and 67 cell number and 77 cell number
- Colony formation (cell number) (DU145 cells [1]; DU145, 4 μM): 40 cell number and 38 cell number and 35 cell number
- Colony formation (cell number) (DU145 cells [1]; DU145, 8 μM): 15 cell number and 12 cell number and 10 cell number
- Colony formation (cell number) (22Rv1 cells [2]; 22Rv1, 0.5 μM): 93 cell number and 88 cell number and 94 cell number
- Colony formation (cell number) (22Rv1 cells [2]; 22Rv1, 1 μM): 40 cell number and 56 cell number and 58 cell number
- Colony formation (cell number) (22Rv1 cells [2]; 22Rv1, 2 μM): 10 cell number and 9 cell number and 13 cell number
- Cell cycle percentages ( % ) G0/G1 (DU145 cells [3]; DU145, 2 μM): 55.97% and 56.66% and 57.2%
- Cell cycle percentages ( % ) G2/M (DU145 cells [3]; DU145, 2 μM): 25.7% and 23.86% and 21.92%
- Cell cycle percentages ( % ) S (DU145 cells [3]; DU145, 2 μM): 18.33% and 19.48% and 20.88%
- Cell cycle percentages ( % ) G0/G1 (DU145 cells [3]; DU145, 4 μM): 57.12% and 58.35% and 59.96%
- Cell cycle percentages ( % ) G2/M (DU145 cells [3]; DU145, 4 μM): 23.02% and 22.58% and 21.06%
- Cell cycle percentages ( % ) S (DU145 cells [3]; DU145, 4 μM): 19.86% and 19.07% and 18.98%
- Cell cycle percentages ( % ) G0/G1 (DU145 cells [3]; DU145, 8 μM): 61.67% and 60.91% and 63.23%
- Cell cycle percentages ( % ) G2/M (DU145 cells [3]; DU145, 8 μM): 18.53% and 21.24% and 18.93%
- Cell cycle percentages ( % ) S (DU145 cells [3]; DU145, 8 μM): 19.8% and 17.85% and 17.84%
- cell cycle (in words) (DU145 cells [3]; DU145 cells, concentration-dependent): arrested cell cycle at the G0/G1 phase
- Cell cycle percentages ( % ) G0/G1 (PC-3 cells; 0.5 µM): 55.96% and 58.42% and 57.82%
- Cell cycle percentages ( % ) G0/G1 (PC-3 cells; 1 µM): 58.52% and 60.06% and 62.96%
- Cell cycle percentages ( % ) G0/G1 (PC-3 cells; 2 µM): 64.67% and 62.48% and 65.02%
- Cell cycle percentages ( % ) G2/M (PC-3 cells; 0.5 µM): 27.56% and 26.05% and 24.61%
- Cell cycle percentages ( % ) G2/M (PC-3 cells; 1 µM): 26.02% and 25.73% and 24.02%
- Cell cycle percentages ( % ) G2/M (PC-3 cells; 2 µM): 24.12% and 24.24% and 22.16%
- Cell cycle percentages ( % ) S (PC-3 cells; 0.5 µM): 16.48% and 15.53% and 17.57%
- Cell cycle percentages ( % ) S (PC-3 cells; 1 µM): 15.46% and 14.21% and 13.02%
- Cell cycle percentages ( % ) S (PC-3 cells; 2 µM): 11.21% and 13.28% and 12.82%
- cell cycle (in words) (PC-3 cells; PC-3 cells, concentration-dependent): arrested cell cycle at the G0/G1 phase
- Cell cycle percentages ( % ) G0/G1 (22Rv1 cells [4]; 22Rv1, 0.5 μM): 58.59% and 61.06% and 63.23%
- Cell cycle percentages ( % ) G2/M (22Rv1 cells [4]; 22Rv1, 0.5 μM): 21.63% and 20.2% and 19.61%
- Cell cycle percentages ( % ) S (22Rv1 cells [4]; 22Rv1, 0.5 μM): 19.78% and 18.74% and 17.16%
- Cell cycle percentages ( % ) G0/G1 (22Rv1 cells [4]; 22Rv1, 1 μM): 66.26% and 67.95% and 69.26%
- Cell cycle percentages ( % ) G2/M (22Rv1 cells [4]; 22Rv1, 1 μM): 16.83% and 16.42% and 15%
- Cell cycle percentages ( % ) S (22Rv1 cells [4]; 22Rv1, 1 μM): 16.91% and 15.43% and 15.74%
- Cell cycle percentages ( % ) G0/G1 (22Rv1 cells [4]; 22Rv1, 2 μM): 71.88% and 73.05% and 74.35%
- Cell cycle percentages ( % ) G2/M (22Rv1 cells [4]; 22Rv1, 2 μM): 13.63% and 11.7% and 11.68%
- Cell cycle percentages ( % ) S (22Rv1 cells [4]; 22Rv1, 2 μM): 14.49% and 15.25% and 13.97%
- cell cycle (in words) (22Rv1 cells [4]; 22Rv1 cells, concentration-dependent): arrested cell cycle at the G0/G1 phase
- Relative proliferation rate (%) mean (RWPE-1 cells; 0.078 uM): 1.172%
- Relative proliferation rate (%) (RWPE-1 cells; 0.078 uM): 1.172% and 0.4794% and 1.866%
- optical density (RWPE-1 cells; 0.078 uM): 1.096 and 1.038 and 1.052
- Relative proliferation rate (%) mean (RWPE-1 cells; 0.3125 uM): 5.563%
- Relative proliferation rate (%) (RWPE-1 cells; 0.3125 uM): 5.591% and 3.3557% and 7.743%
- optical density (RWPE-1 cells; 0.3125 uM): 1.047 and 1.008 and 0.989
- Relative proliferation rate (%) mean (RWPE-1 cells; 1.25 uM): 13.0424%
- Relative proliferation rate (%) (RWPE-1 cells; 1.25 uM): 13.0748% and 7.862% and 18.1903%
- optical density (RWPE-1 cells; 1.25 uM): 0.964 and 0.961 and 0.877
- Relative proliferation rate (%) mean (RWPE-1 cells; 5 uM): 20.9606%
- Relative proliferation rate (%) (RWPE-1 cells; 5 uM): 21.0099% and 16.7785% and 25.0933%
- optical density (RWPE-1 cells; 5 uM): 0.876 and 0.868 and 0.803
- Relative proliferation rate (%) mean (RWPE-1 cells; 20 uM): 54.7483%
- Relative proliferation rate (%) (RWPE-1 cells; 20 uM): 54.734% and 48.1304% and 61.3806%
- optical density (RWPE-1 cells; 20 uM): 0.502 and 0.541 and 0.414
- Relative proliferation rate (%) mean (RWPE-1 cells; 80 uM): 72.5701%
- Relative proliferation rate (%) (RWPE-1 cells; 80 uM): 72.5879% and 64.5254% and 80.597%
- optical density (RWPE-1 cells; 80 uM): 0.304 and 0.37 and 0.208
- inhibitory activity against proliferation (in words) (RWPE-1 cells; RWPE-1 cells): weak inhibitory activity
